Here are results for five molecules from US20060142384A1, “2-Oxyamino-1-cyclopentene-1-nitriles as material protective agents” (priority 2002, published 2006).

Some results are limits rather than exact numbers.

Holding throughout (assay type): cell-based
Assay [1] concerns Bacillus subtilis. The assay is described as follows: MIC on Landy agar against bacteria. The following applies: 72 h, 3 days at 28° C., 60-70% relative atmospheric humidity, read-out: Minimum inhibitory concentrations Bacillus subtilis. How it is done:
(§1) A defined Landy Agar was admixed with the active compounds according to the invention in concentrations of […]. The MIC was determined after 3 days of storage at 28° C. and 60-70% relative atmospheric humidity.

Assay [2] has as its system Pseudomonas aeroginosa. Kind of assay: MIC on Landy agar against bacteria. The following applies: 72 h, 3 days at 28° C., 60-70% relative atmospheric humidity, read-out: Minimum inhibitory concentrations Pseudomonas aeroginosa. How it is done: as §1
For assay [3], the system named is Chaetomium globosum. Kind of assay: MIC on malt extract agar against fungi. The following applies: 336 h, 2 weeks at 28° C., 60 to 70% relative atmospheric humidity, read-out: Minimum inhibitory concentrations Chaetomium globosum. The protocol: (§2) The MIC was determined after 2 weeks of storage at 28° C. and 60 to 70% relative atmospheric humidity.
For assay [4], the system named is Penicillium brevicaule. Kind of assay: MIC on malt extract agar against fungi. The following applies: 336 h, 2 weeks at 28° C., 60 to 70% relative atmospheric humidity, read-out: Minimum inhibitory concentrations Penicillium brevicaule. The protocol: as §2

`N#CC1=C(NO)CCC1` [Example 1, 2-(Hydroxyamino)-1-cyclopentene-1-carbonitrile]: the MIC in assay [1] and in assay [2] was below 400 µg/mL each time.

As to `N#CC1=C(NOCc2ccccc2)CCC1` [Example 3, 2-[(Benzyloxy)amino]-1-cyclopentene-1-carbonitrile], the MIC in assay [3] and in assay [4] was below 400 µg/mL throughout.

Turning to `CC(C)C(=O)ON(C(=O)C(C)C)C1=C(C#N)CCC1` [Example 4, N-(2-Cyano-1-cyclopenten-1-yl)-N-(isobutyryloxy)-2-methylpropanamide], the MIC in assay [1], in assay [2], in assay [3] and in assay [4] was below 400 µg/mL throughout.

For the molecule `Cc1ccc(CONC2=C(C#N)CCC2)cc1` [Example 12], the MIC in assay [3] and in assay [4] was below 400 µg/mL throughout.

On to `N#CC1=C(NOCc2ccc(Cl)cc2)CCC1` [Example 14], for which the MIC in assay [3] and in assay [4] was below 400 µg/mL throughout.
